In ChEMBL document CHEMBL5154765, “Design, synthesis, and biological evaluation of novel spiro[pyrrolidine-2,3'-quinolin]-2'-one derivatives as potential chitin synthase inhibitors and antifungal agents” (Eur J Med Chem, 2022):
≈ marks a conversion by molar mass, not a printed value.

Columns and labels:
Aspergillus fumigatus [1] = assay: Antifungal activity against Aspergillus fumigatus GIMCC 3.19 assessed as reduction in fungal growth incubated for 24 hrs by two fold broth dilution method; type: functional
Candida albicans [2] = assay: Antifungal activity against Candida albicans ATCC 76615 assessed as reduction in fungal growth in presence of sorbitol incubated for 24 hrs by two fold broth dilution method; type: functional
Candida albicans [3] = assay: Antifungal activity against micafungin resistant Candida albicans ATCC 76615 assessed as reduction in fungal growth incubated for 24 hrs by two fold broth dilution method; type: functional
Aspergillus flavus [4] = assay: Antifungal activity against Aspergillus flavus ATCC 16870 assessed as reduction in fungal growth in presence of sorbitol incubated for 24 hrs by two fold broth dilution method; type: functional
Aspergillus flavus [5] = assay: Antifungal activity against fluconazole resistant Aspergillus flavus ATCC 16870 assessed as reduction in fungal growth incubated for 24 hrs by two fold broth dilution method; type: functional
Cryptococcus neoformans [6] = assay: Antifungal activity against Cryptococcus neoformans ATCC 32719 assessed as reduction in fungal growth incubated for 24 hrs by two fold broth dilution method; type: functional
Cryptococcus neoformans [7] = assay: Antifungal activity against fluconazole resistant Cryptococcus neoformans ATCC 32719 assessed as reduction in fungal growth incubated for 24 hrs by two fold broth dilution method; type: functional
Aspergillus fumigatus [8] = assay: Antifungal activity against Aspergillus fumigatus GIMCC 3.19 assessed as reduction in fungal growth in presence of sorbitol incubated for 24 hrs by two fold broth dilution method; type: functional
Candida tropicalis = assay: Inhibition of Candida tropicalis ATCC750 chitin synthase at 300 ug/ml using UDP-GlcNAc as substrate incubated for 1 hr by microplate reader analysis relative to control; settings: dose 300.0 µg/ml
Cryptococcus neoformans [9] = assay: Antifungal activity against Cryptococcus neoformans ATCC 32719 assessed as reduction in fungal growth in presence of sorbitol incubated for 24 hrs by two fold broth dilution method; type: functional
Aspergillus fumigatus [10] = assay: Antifungal activity against fluconazole resistant Aspergillus fumigatus GIMCC 3.19 assessed as reduction in fungal growth incubated for 24 hrs by two fold broth dilution method; type: functional
Candida albicans [11] = assay: Antifungal activity against Candida albicans ATCC 76615 assessed as reduction in fungal growth incubated for 24 hrs by two fold broth dilution method; type: functional
Aspergillus flavus [12] = assay: Antifungal activity against Aspergillus flavus ATCC 16870 assessed as reduction in fungal growth incubated for 24 hrs by two fold broth dilution method; type: functional
[13] = Inhibition of Candida tropicalis ATCC750 chitin synthase using UDP-GlcNAc as substrate incubated for 1 hr by microplate reader analysis
Candida albicans [14] = assay: Antifungal activity against fluconazole resistant Candida albicans ATCC 76615 assessed as reduction in fungal growth incubated for 24 hrs by two fold broth dilution method; type: functional

| MIC (Aspergillus fumigatus [1]) [µg/mL] | MIC (Cryptococcus neoformans [6]) [µg/mL] | inhibition (Candida tropicalis) [%] | MIC (Candida albicans [11]) [µg/mL] | MIC (Aspergillus flavus [12]) [µg/mL] | IC50 [13] [µM] | Compound | MIC (Candida albicans [2]) [µg/mL] | MIC (Candida albicans [3]) [µg/mL] | MIC (Aspergillus flavus [4]) [µg/mL] | MIC (Aspergillus flavus [5]) [µg/mL] | MIC (Cryptococcus neoformans [7]) [µg/mL] | MIC (Aspergillus fumigatus [8]) [µg/mL] | MIC (Cryptococcus neoformans [9]) [µg/mL] | MIC (Aspergillus fumigatus [10]) [µg/mL] | MIC (Candida albicans [14]) [µg/mL] |
| --- | --- | --- | --- | --- | --- | --- | --- | --- | --- | --- | --- | --- | --- | --- | --- |
| 8 (≈ 19.7 µM) | 32 (≈ 78.9 µM) | 50.9 | 16 (≈ 39.5 µM) | 32 (≈ 78.9 µM) | 590 | COc1ccc(NC(=O)/C=C/C(=O)N2CCCC23Cc2ccccc2NC3=O)cc1 (stereo unspecified) | – | – | – | – | – | – | – | – | – |
| 16 (≈ 35.2 µM) | 16 (≈ 35.2 µM) | 56.4 | 8 (≈ 17.6 µM) | 16 (≈ 35.2 µM) | 520 | O=C(/C=C/C(=O)N1CCCC12Cc1ccccc1NC2=O)Nc1ccc(Br)cc1 (stereo unspecified) | – | – | – | – | – | – | – | – | – |
| 64 (≈ 164 µM) | 64 (≈ 164 µM) | 46.4 | 32 (≈ 82.2 µM) | 16 (≈ 41.1 µM) | 1070 | Cc1ccc(NC(=O)/C=C/C(=O)N2CCCC23Cc2ccccc2NC3=O)cc1 (stereo unspecified) | – | – | – | – | – | – | – | – | – |

Second part, the compound before the results:

| Compound | MIC (Aspergillus fumigatus [1]) [µg/mL] | MIC (Cryptococcus neoformans [6]) [µg/mL] | inhibition (Candida tropicalis) [%] | MIC (Candida albicans [11]) [µg/mL] | MIC (Aspergillus flavus [12]) [µg/mL] | IC50 [13] [µM] | MIC (Candida albicans [2]) [µg/mL] | MIC (Candida albicans [3]) [µg/mL] | MIC (Aspergillus flavus [4]) [µg/mL] | MIC (Aspergillus flavus [5]) [µg/mL] | MIC (Cryptococcus neoformans [7]) [µg/mL] | MIC (Aspergillus fumigatus [8]) [µg/mL] | MIC (Cryptococcus neoformans [9]) [µg/mL] | MIC (Aspergillus fumigatus [10]) [µg/mL] | MIC (Candida albicans [14]) [µg/mL] |
| --- | --- | --- | --- | --- | --- | --- | --- | --- | --- | --- | --- | --- | --- | --- | --- |
| O=C(/C=C/C(=O)N1CCCC12Cc1ccccc1NC2=O)Nc1ccccc1Cl (stereo unspecified) | 4 (≈ 9.76 µM) | 8 (≈ 19.5 µM) | 76.1 | 4 (≈ 9.76 µM) | 8 (≈ 19.5 µM) | 120 | 32 | 32 (≈ 78.1 µM) | 128 | 16 (≈ 39 µM) | 32 (≈ 78.1 µM) | 64 | 64 | 32 (≈ 78.1 µM) | 32 (≈ 78.1 µM) |
| Cc1cccc(NC(=O)/C=C/C(=O)N2CCCC23Cc2ccccc2NC3=O)c1 (stereo unspecified) | 64 (≈ 164 µM) | 128 (≈ 329 µM) | 44.1 | 16 (≈ 41.1 µM) | 32 (≈ 82.2 µM) | 1210 | – | – | – | – | – | – | – | – | – |
| COc1cccc(NC(=O)/C=C/C(=O)N2CCCC23Cc2ccccc2NC3=O)c1 (stereo unspecified) | 32 (≈ 78.9 µM) | 32 (≈ 78.9 µM) | 48.3 | 8 (≈ 19.7 µM) | 16 (≈ 39.5 µM) | 770 | – | – | – | – | – | – | – | – | – |
| NC(=O)OC[C@H](O)[C@@H](O)[C@H](N)C(=O)N[C@H](C(=O)O)[C@H]1O[C@@H](n2cc(CO)c(=O)[nH]c2=O)[C@H](O)[C@@H]1O [POLYOXIN B] | 8 (≈ 15.8 µM) | 16 (≈ 31.5 µM) | 86.1 | 8 (≈ 15.8 µM) | 8 (≈ 15.8 µM) | 90 | 64 | – | 64 | – | – | 64 | 128 | – | – |
| O=C(/C=C/C(=O)N1CCCC12Cc1ccccc1NC2=O)Nc1ccc(Cl)cc1Cl (stereo unspecified) | 8 (≈ 18 µM) | 16 (≈ 36 µM) | 73.7 | 4 (≈ 9 µM) | 8 (≈ 18 µM) | 170 | 64 | 64 (≈ 144 µM) | 128 | 64 (≈ 144 µM) | 64 (≈ 144 µM) | 64 | 128 | 64 (≈ 144 µM) | 64 (≈ 144 µM) |
| O=C(/C=C/C(=O)N1CCCC12Cc1ccccc1NC2=O)Nc1cccc2ccccc12 (stereo unspecified) | 16 (≈ 37.6 µM) | 64 (≈ 150 µM) | 53.6 | 8 (≈ 18.8 µM) | 16 (≈ 37.6 µM) | 570 | – | – | – | – | – | – | – | – | – |
